Experimental data taken from patent US10668048B2, “Compounds for inhibiting bacterial growth via phosphatidylglycerol binding” (Wichita State University, priority 2016, dated 2020).
In brackets after ≈: the same amount, converted by molar mass.

Columns and labels:
MRSA [1] = assay: MIC in cation-adjusted Muller Hinton culture; type: cell-based, Methicillin-resistant S. aureus; details: no growth after 24 hours
Experimental: (§1) MICs were determined in cation-adjusted Muller Hinton culture. Standard CLSI protocol for serial dilutions of liptin concentrations were used to determine the MIC, starting at 0.01 OD. Two different experimental cultures were used and each data point measured in triplicate.

Acinetobacter baumannii [2] = assay: MIC in cation-adjusted Muller Hinton culture; type: cell-based; details: no growth after 24 hours
Experimental: as §1

Escherichia coli [3] = assay: MIC in cation-adjusted Muller Hinton culture; type: cell-based; details: no growth after 24 hours
Experimental: as §1

Klebsiella pneumoniae [4] = assay: MIC in cation-adjusted Muller Hinton culture; type: cell-based; details: no growth after 24 hours
Experimental: as §1

Mycobacterium smegmatis [5] = assay: MIC in cation-adjusted Muller Hinton culture; type: cell-based; details: no growth after 24 hours
Experimental: as §1

Pseudomonas aeruginosa = assay: MIC in cation-adjusted Muller Hinton culture; type: cell-based; details: no growth after 24 hours
Experimental: as §1

Staphylococcus aureus [6] = assay: MIC in cation-adjusted Muller Hinton culture; type: cell-based; details: no growth after 24 hours
Experimental: as §1

MRSA [7] = assay: MBC in cation-adjusted Muller Hinton culture; type: cell-based, Methicillin-resistant S. aureus
Experimental: as §1, with “Minimum bactericidal concentration (MBC)” for “MICs”, “MBC,” for “MIC,”

Acinetobacter baumannii [8] = assay: MBC in cation-adjusted Muller Hinton culture; type: cell-based
Experimental: as §1, with “Minimum bactericidal concentration (MBC)” for “MICs”, “MBC,” for “MIC,”

Escherichia coli [9] = assay: MBC in cation-adjusted Muller Hinton culture; type: cell-based
Experimental: as §1, with “Minimum bactericidal concentration (MBC)” for “MICs”, “MBC,” for “MIC,”

Klebsiella pneumoniae [10] = assay: MBC in cation-adjusted Muller Hinton culture; type: cell-based
Experimental: as §1, with “Minimum bactericidal concentration (MBC)” for “MICs”, “MBC,” for “MIC,”

Mycobacterium smegmatis [11] = assay: MBC in cation-adjusted Muller Hinton culture; type: cell-based
Experimental: as §1, with “Minimum bactericidal concentration (MBC)” for “MICs”, “MBC,” for “MIC,”

Staphylococcus aureus [12] = assay: MBC in cation-adjusted Muller Hinton culture; type: cell-based
Experimental: as §1, with “Minimum bactericidal concentration (MBC)” for “MICs”, “MBC,” for “MIC,”

[13] = system: Gram-negative and Gram-positive bacteria; assay: MIC/MBC in Muller Hinton culture, summary over the bacteria tested; type: cell-based
Experimental: as §1
as §1, with “Minimum bactericidal concentration (MBC)” for “MICs”, “MBC,” for “MIC,”

MRSA [14] = assay: Live-Dead stain (BacLight SYTO 9 / propidium iodide); type: cell-based, Methicillin-resistant S. aureus; details: 90 minutes
Experimental: (§2) Molecular Probes BacLight© kits containing the SYTO 9 green-fluorescent dye and propidium iodide red-fluorescent dye were used to detect live or dead bacteria after ninety minute exposure of bacteria to liptins 1h or 1k. Bacteria in Muller Hinton culture were grown to an OD=0.3, were inoculated with liptins 1h and 1k and after ninety minutes stained with a mixture of the above dyes and affixed to a slide to be examined under a light microscope (40×) to determine the number of live and dead cells (green colored cells considered alive and red-colored cells considered dead). Data was calculated based upon an average of 5 different plate counts from each slide, and is based on a percent of total bacteria counted (live and dead). Control sample contains no liptin.

Acinetobacter baumannii [15] = assay: as above; type: cell-based; details: 5 μM, 90 minutes
Experimental: as §2

Escherichia coli [16] = assay: as above; type: cell-based; details: 10 μM, 90 minutes
Experimental: as §2

Klebsiella pneumoniae [17] = assay: as above; type: cell-based; details: 5 μM, 90 minutes
Experimental: as §2

Mycobacterium smegmatis [18] = assay: as above; type: cell-based; details: 5 μM, 90 minutes
Experimental: as §2

Staphylococcus aureus [19] = assay: as above; type: cell-based; details: 5 μM, 90 minutes
Experimental: as §2

E. coli = assay: BacLight Bacterial Membrane Potential kit, plasma membrane depolarization; type: cell-based; details: one half the liptins' MICs; concentration dependent
Experimental: (§3) The Molecular Probes BacLight® Bacterial Membrane Potential kit was used to detect changes in the polarization of the bacterial plasma membrane upon inoculation of bacteria with varying concentrations of liptins 1h or 1k. […] CCCP (carbonyl cyanide 3-chlorophenylhydrazone) is a proton ionophore that destroys plasma membrane potential and as such is a positive control. […] With plasma membrane depolarization the bacterial cell loses its ability to synthesize ATP and proteins. Additionally loss of membrane potential stops the ability for cell replication due to an inability for proper placement of divisome proteins in the plasma membrane. […] Thus, it is possible that the liptin's mechanism of action is a result of their deleterious effect on the functioning of electron transport proteins found in the plasma membrane.

S. aureus = assay: as above; type: cell-based; details: one half the liptins' MICs; concentration dependent
Experimental: as §3

[20] = system: A549 (lung carcinoma epithelial) cells; assay: LDH release cytotoxicity assay; type: cell-based; details: near 15 μM
Experimental: (§4) Toxicity Studies of human HeLa (vaginal carcinoma) and A549 (lung carcinoma epithelial) cells with Liptins 1h and 1k.
(§5) Eukaryote cell toxicity was determined using a Pierce LDH assay kit including the Chemical Compound-Mediated Cytotoxicity assay. This kit measures cell death by measuring the amount of lactate dehydrogenase released from cells. Lactate dehydrogenase (LDH) is a cytosolic enzyme present in many different types of cells. When the plasma membrane is damaged, LDH is released into cell culture media. The released LDH can be quantified by a coupled enzymatic reaction. First, LDH catalyzes the conversion of lactate to pyruvate via reduction of NAD+ to NADH. Second, diaphorase uses NADH to reduce a tetrazolium salt (INT) to a red formazan product. Therefore, the level of formazan formation is directly proportional to the amount of released LDH in the medium.

[21] = system: human HeLa (vaginal carcinoma) cells; assay: LDH release cytotoxicity assay; type: cell-based; details: up to about 15 μM
Experimental: as §4, §5

[22] = system: Gram-positive and Gram-negative bacteria; assay: Growth curves in BHI culture with liptins 1h-k; type: cell-based; details: one inoculation
Experimental: Growth curves in BHI culture were generated (not shown) from liquid shake-flask cultures using absorbance measurements at 600 nm at different concentrations of liptins 1h-k. Uninoculated control flasks were used as blanks. Absorbance values of 0.1 OD unit was considered reasonable threshold for positive growth. The use of the nutrient-rich BHI culture allowed us to measure the effects of the small structural differences in liptins 1h-k on bacterial growth rates over long periods of time. […] Liptin exposure appears to stop bacterial growth, as evidenced by long lag phases, which increase with liptin concentration, and growth rates and maximum cell densities are decreased with liptin treatment.

CCCCCCNC(=O)Cc1ccc2c(c1)CNCCCCNCc1cc(CC(=O)NCCCCCC)ccc1OCCCCO2 [Liptin 1k]
MIC (MRSA [1]): 2.5 µM (≈ 1.59 µg/mL)
MIC (Acinetobacter baumannii [2]): 2 µM (≈ 1.27 µg/mL)
MIC (Escherichia coli [3]): 1.5 µM (≈ 0.955 µg/mL)
MIC (Klebsiella pneumoniae [4]): 2.5 µM (≈ 1.59 µg/mL)
MIC (Mycobacterium smegmatis [5]): 2 µM (≈ 1.27 µg/mL)
MIC (Pseudomonas aeruginosa): 8 µM (≈ 5.1 µg/mL)
MIC (Staphylococcus aureus [6]): 2 µM (≈ 1.27 µg/mL)
MBC (MRSA [7]): 11.5 µM (≈ 7.32 µg/mL)
MBC (Acinetobacter baumannii [8]): 7.5 µM (≈ 4.78 µg/mL)
MBC (Escherichia coli [9]): 7.5 µM (≈ 4.78 µg/mL)
MBC (Klebsiella pneumoniae [10]): 9.5 µM (≈ 6.05 µg/mL)
MBC (Mycobacterium smegmatis [11]): 9.5 µM (≈ 6.05 µg/mL)
MBC (Staphylococcus aureus [12]): 9.5 µM (≈ 6.05 µg/mL)
MICs determined for the 6 bacteria [13]: 1.5 to 2.5 µM
Dead (MRSA [14]; 5 μM): 70%
Live (MRSA [14]; 5 μM): 30%
Dead (MRSA [14]; 10 μM): 100%
Live (MRSA [14]; 10 μM): 0%
Dead (Acinetobacter baumannii [15]): 97%
Live (Acinetobacter baumannii [15]): 3%
Dead (Escherichia coli [16]): 65%
Live (Escherichia coli [16]): 35%
Dead (Klebsiella pneumoniae [17]): 100%
Live (Klebsiella pneumoniae [17]): 0%
Dead (Mycobacterium smegmatis [18]): 100%
Live (Mycobacterium smegmatis [18]): 0%
Dead (Staphylococcus aureus [19]): 42%
Live (Staphylococcus aureus [19]): 58%
plasma membrane depolarization (red/green fluorescence ratio) (E. coli): large membrane depolarization
plasma membrane depolarization (red/green fluorescence ratio) (S. aureus): large membrane depolarization
cytotoxicity (LDH release) [20]: around 8%
cell toxicity (LDH release) [21]: no cell toxicity
antibacterial activity from growth curves [22]: most potent
